# Source: patent US11779567B2, “Method for optimizing 5-hydroxytryptamine function in the brain for therapeutic purposes” (Evecxia Therapeutics, Inc., priority 2021, dated 2023)
# Experiment: Plasma escitalopram levels in Phase 1 study
# Assay type: in vivo, human
# Conditions: for Escitalopram plasma levels, Average Day 21-23 / concentration at 21 day / concentration at 22 day / concentration at 23 day: 20 mg/day oral; for Escitalopram plasma levels, Average Day 21-23 / concentration at 7 day / concentration at 21 day / concentration at 22 day / concentration at 23 day: mean ± SEM; for concentration at 7 day / concentration at 21 day / concentration at 22 day / concentration at 23 day: both sexes, human, plasma; for concentration at 7 day: 10 mg/day, after 10 mg/day oral
# Experimental: Study Design. A Phase 1, randomized, double-blind, placebo-controlled, single ascending dose study was performed to evaluate the safety, tolerability and pharmacokinetics (PK) of 5-HTP solution for IV infusion when administered to healthy adults taking a selective serotonin reuptake inhibitor (SSRI), escitalopram, for 3 weeks. Study duration was 37±3 days. The total individual subject participation time was no more than 66 days including screening, dosing, and follow-up phases. The IV infusion duration was 24 h, dosing with 5-HTP solution for IV infusion (see Example 3, above) or placebo (0.9% saline).
# Pre-treatment with escitalopram. All subjects received pretreatment with escitalopram for 3 weeks prior to and during the 24 h IV infusion. A supply of escitalopram was provided for self-administration at a dose of 10 mg/day for 7 days. On Day 7 subjects were evaluated for general health and tolerability of escitalopram. Escitalopram compliance confirmation was evaluated by taking a blood draw for escitalopram plasma level measurements and by monitoring pill count using a diary. On Day 7 the subjects received a supply of 20 mg escitalopram tablets and self-administered 20 mg/day until Day 20 when they were admitted to the impatient clinic. Escitalopram was co-administered orally on Day 21-23 by clinical staff. Escitalopram treatment was tapered from 20 mg/day to 10 mg/day after the end of the infusion and continued for 8 days.
# Bioanalysis. Plasma samples for 5-HTP analysis were collected and stored at −80° C. Plasma samples for escitalopram analysis were collected and stored at −80° C. Plasma 5-HTP levels and plasma escitalopram levels were measured using standard liquid chromatography with tandem mass spectrometry (LC-MS-MS) methods. For 5-HTP analysis, plasma samples were collected at T=0, 1, 2, 3, 4, 5, 6, 8, 10, 12, 14, 22, 24, 26, 28, 30, 32, 36, and 48 hr. For escitalopram analysis, plasma samples were collected on Day 7, Day 21 (pre-infusion), Day 22 (end of infusion), and Day 23 (24 hr after end of infusion). Plasma escitalopram levels were averaged across days 21-23, during the time-period when subjects were admitted to the clinic and received 5-HTP solution for IV infusion or placebo.
# PK analysis of plasma escitalopram. Plasma escitalopram levels across Days 21-23 were averaged for each subject, and statistical analysis by one-way ANOVA for cohort differences executed using GraphPad Prism version 9.4.1.
# [1] = oral, Cohort 1 (5-HTP 1 mg/kg, Constant)
# [2] = oral, Cohort 2 (5-HTP 3 mg/kg, Constant)
# [3] = oral, Cohort 3 (5-HTP 3 mg/kg, Ramped)
# [4] = oral, 20 mg/day, Cohort 4 (5-HTP 2 mg/kg, Ramped)
# [5] = oral, 20 mg/day, Cohort 5 (5-HTP 1 mg/kg, Ramped)
# [6] = po, 20 mg/day, Cohorts 1-5 pooled, placebo infusion instead of 5-HTP, N=10
smiles,measurement,setting,value
"CN(C)CCC[C@@]1(c2ccc(F)cc2)OCc2cc(C#N)ccc21 [Escitalopram, escitalopram]","Escitalopram plasma levels, Average Day 21-23","Cohort 1 (5-HTP 1 mg/kg, Constant)",39.7 ± 8.9 ng/mL
same,"Escitalopram plasma levels, Average Day 21-23","Cohort 2 (5-HTP 3 mg/kg, Constant)",25.6 ± 6.5 ng/mL
same,"Escitalopram plasma levels, Average Day 21-23","Cohort 3 (5-HTP 3 mg/kg, Ramped)",39.1 ± 4.8 ng/mL
same,"Escitalopram plasma levels, Average Day 21-23","Cohort 4 (5-HTP 2 mg/kg, Ramped)",29.2 ± 6.2 ng/mL
same,"Escitalopram plasma levels, Average Day 21-23","Cohort 5 (5-HTP 1 mg/kg, Ramped)",24.4 ± 5.0 ng/mL
same,"Escitalopram plasma levels, Average Day 21-23","Cohorts 1-5 pooled, placebo infusion instead of 5-HTP, N=10",44.0 ± 8.2 ng/mL
same,"average plasma escitalopram levels, range across treatment groups","Days 21-23, 20 mg/day oral",24 to 44 ng/mL
same,concentration at 7 day,[1],19.3 ± 3.1 ng/mL
same,concentration at 7 day,[2],10.1 ± 1.5 ng/mL
same,concentration at 7 day,[3],17 ± 2.3 ng/mL
same,concentration at 7 day,"oral, Cohort 4 (5-HTP 2 mg/kg, Ramped)",14.2 ± 2.5 ng/mL
same,concentration at 7 day,"oral, Cohort 5 (5-HTP 1 mg/kg, Ramped)",11.4 ± 2.3 ng/mL
same,concentration at 21 day,"oral, 20 mg/day, Cohort 1 (5-HTP 1 mg/kg, Constant)",39.8 ± 12.3 ng/mL
same,concentration at 21 day,"oral, 20 mg/day, Cohort 2 (5-HTP 3 mg/kg, Constant)",22.5 ± 10.2 ng/mL
same,concentration at 21 day,"oral, 20 mg/day, Cohort 3 (5-HTP 3 mg/kg, Ramped)",43.5 ± 4.5 ng/mL
same,concentration at 21 day,[4],28.5 ± 5.8 ng/mL
same,concentration at 22 day,[4],28.8 ± 6.2 ng/mL
same,concentration at 23 day,[4],30.3 ± 7 ng/mL
same,concentration at 21 day,[5],21.7 ± 3.4 ng/mL
same,concentration at 22 day,[5],22.2 ± 4.7 ng/mL
same,concentration at 23 day,[5],29.2 ± 7.5 ng/mL
same,concentration at 22 day,[1],37.9 ± 7.3 ng/mL
same,concentration at 23 day,[1],41.6 ± 7.6 ng/mL
same,concentration at 22 day,[2],24.3 ± 5.7 ng/mL
same,concentration at 23 day,[2],30 ± 3.7 ng/mL
same,concentration at 22 day,[3],37.3 ± 5.9 ng/mL
same,concentration at 23 day,[3],36.6 ± 4.1 ng/mL
same,concentration at 7 day,"po, Cohorts 1-5 pooled, placebo infusion instead of 5-HTP, N=10",18.3 ± 3.1 ng/mL
same,concentration at 21 day,[6],43.3 ± 8.4 ng/mL
same,concentration at 22 day,[6],45.2 ± 9.1 ng/mL
same,concentration at 23 day,[6],43.5 ± 7.5 ng/mL
